Test results published in PubChem BioAssay (NCI).
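Results reflect a 48-hour exposure of cells in 96-well plates to compound at five concentrations. TGI: total growth inhibition.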

Legend:
Experiment in all cases: NCI anticancer screen, dose series, 48 h
[1] = system: DU-145 prostate
[2] = system: SF-268 CNS
[3] = system: CAKI-1 renal
[4] = system: NCI-H522 lung
[5] = system: SF-295 CNS
[6] = system: NCI-H460 lung
[7] = system: KM12 colon
[8] = system: UO-31 renal
[9] = system: MDA-N
[10] = system: SW-620 colon
[11] = system: SK-MEL-2 melanoma
[12] = system: OVCAR-3 ovarian
[13] = system: PC-3 prostate
[14] = system: SNB-19 CNS
[15] = system: MCF7 breast
[16] = system: HT29 colon
[17] = system: SR leukemia
[18] = system: K-562 leukemia

SMILES | TGI [1] [µM] | TGI [2] [µM] | TGI [3] [µM] | TGI [4] [µM] | TGI [5] [µM] | TGI [6] [µM] | TGI [7] [µM] | TGI [8] [µM] | TGI [9] [µM] | TGI [10] [µM] | TGI [11] [µM] | TGI [12] [µM] | TGI [13] [µM] | TGI [14] [µM] | TGI [15] [µM] | TGI [16] [µM] | TGI [17] [µM] | TGI [18] [µM]
CC1=C(O)C(=O)C[C@]2(C)[C@H]3CC=C4[C@@H]5CC(C)(C)CC[C@@H]5C(=O)[C@H](O)[C@@]4(C)[C@]3(C)CC[C@@H]12 | > 50 | > 50 | > 50 | > 50 | > 50 | > 50 | > 50 | > 50 | > 50 | > 50 | > 50 | > 50 | > 50 | > 50 | > 50 | > 50 |  | 
CC(=O)CCC(=O)C(=[N+]=[N-])S(=O)(=O)c1ccccc1 | > 100 | > 100 |  | > 100 | > 100 | > 100 | > 100 | > 100 | > 100 | > 100 | > 100 | > 100 | > 100 | > 100 | > 100 | > 100 | > 100 | > 100
O=c1c2c(c1=O)C1(SCCCS1)c1cc(Cl)ccc1O2 | > 100 | > 100 | > 100 | > 100 | > 100 | > 100 | > 100 | > 100 | > 100 | > 100 | > 100 | > 100 | > 100 | > 100 | > 100 | > 100 |  | > 100
C=CCOc1ccc(/C(N=Nc2ccccc2)=N/NC(=O)c2ccccc2)cc1OC | > 100 | > 100 | > 100 | > 100 | > 100 | > 100 | > 100 | > 100 | > 100 | > 100 | > 100 | > 100 | > 100 | > 100 | > 100 | > 100 | > 100 | 
C=C(C(=O)O)C1CCC(CC/C=C(\C)CC/C=C(\C)CCC=C(C)C)CO1 (configuration not stated) | 42.2 | > 100 | > 100 | 48.6 | 42.8 |  | 28.4 | 30 | 27.8 | 33.4 | 60.4 |  | 79.1 | 29.1 | 32.6 | 29.3 |  | 
CCOC(=O)c1cc(C2CCN(CC(C)CC)C2=S)c(-c2cc(C)no2)[nH]1 (configuration not stated) | > 100 | > 100 | > 100 |  | > 100 | > 100 | > 100 | 82.4 | > 100 | > 100 | > 100 | > 100 | > 100 | > 100 | > 100 | > 100 | > 100 | > 100
CC(=O)O[C@@H]1[C@H]2[C@@H](OC(=O)c3ccccc3)[C@@H](C)C[C@]2(O)[C@H](OC(C)=O)[C@@]2(C)[C@@H]3CC(C)(C)C(=O)[C@]3(OC(C)=O)C[C@@]12C | > 25 | > 25 | > 25 | > 25 | > 25 | > 25 | > 25 | > 25 | > 25 | > 25 | > 25 | > 25 | > 25 | > 25 | > 25 |  | > 25 | 
c1ccc(-c2ccc(-c3cc4ccccc4[nH]3)cc2)cc1 | > 100 | > 100 | > 100 | > 100 | > 100 | > 100 | > 100 | > 100 | > 100 | > 100 | > 100 | > 100 | > 100 | > 100 | > 100 | > 100 | > 100 | 
N#CCC(=O)c1cc(OCc2cc(OCc3ccc(Br)cc3)cc(OCc3ccc(Br)cc3)c2)cc(OCc2cc(OCc3ccc(Br)cc3)cc(OCc3ccc(Br)cc3)c2)c1 | > 100 | > 100 | > 100 | > 100 | > 100 | > 100 | > 100 | > 100 | > 100 |  | > 100 | > 100 | > 100 | > 100 | > 100 |  |  | > 100
C#CCOCn1ccc(=O)[nH]c1=O | > 100 | > 100 | > 100 |  | > 100 | > 100 | > 100 | > 100 | > 100 | > 100 | > 100 |  | > 100 | > 100 | > 100 | > 100 | > 100 | > 100
C/C(=N\Nc1ccccc1Br)c1cccc(/C(C)=N/Nc2ccccc2Br)n1 | > 100 | > 100 | > 100 |  | > 100 | > 100 | > 100 | > 100 | > 100 | > 100 | > 100 | > 100 | > 100 | > 100 | > 100 | > 100 | > 100 | > 100
COc1ccc(C(=O)/C=C/c2ccc(OCCSCCCCCCCCCCSCCOc3ccc(/C=C/C(=O)c4ccc(OC)cc4)cc3)cc2)cc1 | > 100 | > 100 | > 100 |  | > 100 | > 100 | > 100 | > 100 | > 100 | > 100 | > 100 |  | > 100 | > 100 | > 100 | > 100 | > 100 | > 100
CC(C)C1OC2(C)OC(=N)C1(C#N)C(C#N)(C#N)C2C (configuration not stated) | > 100 | 56.4 | 22.8 |  | > 100 | 33.8 | > 100 | > 100 | 29.8 | 80.5 | 67.7 | 33.4 | > 100 |  | 41.7 | 41 |  | > 100
Cc1cnc(/N=c2\sc(C)cn2-c2ncc(C)s2)s1 | > 100 | > 100 |  | > 100 | > 100 | > 100 | > 100 | > 100 | > 100 | > 100 |  | > 100 | > 100 | > 100 | > 100 | > 100 | > 100 | > 100
Cc1nn(C(=O)c2ccncc2)c2c1C(c1ccc(Cl)cc1)SC(N)=N2 (configuration not stated) | > 10 | > 10 | > 10 |  | > 10 | > 10 | > 10 |  | > 10 | > 10 | > 10 | > 10 | > 10 | > 10 | > 10 | > 10 | > 10 | > 10
c1cc(CSP234N5CCN2CCN3CCN4CC5)ccc1CSP123N4CCN1CCN2CCN3CC4 | > 100 | > 100 | > 100 | > 100 | > 100 | > 100 | > 100 | > 100 | > 100 | > 100 | > 100 | > 100 | > 100 | > 100 | > 100 | > 100 |  | > 100
CCN1CN(c2ccccc2)C2(CCN(CCCSc3ccc(F)cc3)CC2)C1=O | 17.9 | 28.3 | 35.7 | 30 | 25.7 |  | 28.9 | 18.1 | 26.4 | 26.1 |  | 27.2 | 28.1 | 24.3 | 12.2 | 13.3 | 36.5 | 37.1
CC(C)(C)[Si](C)(C)OCC1OC(n2ccc(=O)[nH]c2=O)C(O[Si](C)(C)C(C)(C)C)[C@@]12O[C@H]2C(N)=O (some centres not stated) | 17.6 | 28.2 | 28.2 | 7.35 | 17 | 20.4 | 44.2 | 19.6 | 24.1 | 42.5 | 34.6 | 25.9 | 17.8 | 24.1 | 18.7 | 12.4 |  | 
Cc1nc(-n2[nH]c(C)c(CCO)c2=O)[nH]c(=O)c1CCO | > 100 | > 100 | > 100 | > 100 | > 100 | > 100 | > 100 | > 100 | > 100 | > 100 |  | > 100 | > 100 | > 100 | > 100 | > 100 | > 100 | > 100
O=C1NC(=S)NC(=O)C1C(c1ccc([N+](=O)[O-])cc1)C1C(=O)NC(=S)NC1=O | > 100 |  | > 100 | > 100 | > 100 | > 100 | > 100 | > 100 | > 100 | > 100 | > 100 | > 100 | > 100 | > 100 | > 100 | > 100 |  | > 100
CC1(C)C2CCC(N)(C2)C1N (configuration not stated) | > 100 |  | > 100 |  | > 100 | > 100 | > 100 | > 100 | > 100 | > 100 | > 100 | > 100 | > 100 | > 100 | > 100 |  | > 100 | > 100
COc1cc2c(cc1OC)CC(=O)c1cc(OC)c(OC)cc1/C=C\2 | > 12.5 | > 12.5 | > 12.5 | > 12.5 | > 12.5 | > 12.5 | > 12.5 | > 12.5 | 7.36 | > 12.5 | > 12.5 | > 12.5 | > 12.5 | > 12.5 | > 12.5 | > 12.5 |  | > 12.5
O=C(O)CCC(NC(=O)c1ccc(Nc2cnc3ccc(C(F)(F)F)cc3n2)cc1)C(=O)O (configuration not stated) | > 100 | > 100 | > 100 |  | > 100 | > 100 | > 100 | > 100 | > 100 | > 100 | > 100 | > 100 | > 100 | > 100 | > 100 | > 100 | > 100 | > 100
C(=Nc1ccc(-c2cc(-c3ccccc3)nc3ccc4ccccc4c23)cc1)c1ccccc1 | 68.6 | > 100 | 75.4 |  | 48.8 | > 100 | 68 | 73.1 | > 100 | > 100 |  | 68.9 | > 100 | 58 | > 100 | 40.3 | > 100 | > 100
Cc1cccc2c(=O)c3c(O)cc(O)cc3[nH]c12 | > 10 | > 10 | > 10 | > 10 | > 10 | > 10 | > 10 | > 10 | > 10 | > 10 | > 10 | > 10 | > 10 | > 10 | > 10 | > 10 |  | > 10
N#Cc1c(-c2ccc(Cl)cc2)c(C#N)c(=O)n(NS(=O)(=O)c2ccccc2)c1S | > 100 |  | 66.6 | 47.4 | > 100 | 46 |  | 45.3 | 67.3 | 69.9 | > 100 | > 100 | > 100 |  | > 100 |  | 56.5 | > 100
N#CCCSC1SC(=C2SC3=C(SCCS3)S2)SC1SCCC#N (configuration not stated) | > 100 | > 100 | > 100 | > 100 | > 100 | > 100 |  | > 100 | > 100 | > 100 | > 100 | > 100 | > 100 | > 100 | > 100 | > 100 | > 100 | > 100
